From patent US20230277597A1, “HAPLOIDENTICAL MIXED CHIMERISM FOR TREATING AUTOIMMUNE DISEASES” (CITY OF HOPE, priority 2020, published 2023) come the findings set out here.

In the test the test system is Foxp3^+ Treg cells. The test is described as follows: In vivo Treg depletion with diphtheria toxin in Haplo-MC NOD mice carrying Foxp3^DTR. The arrangement: species or system mouse. As to conditions: for mice insulitis free in all the evaluated islets: 3 weeks after first injection.

diphtheria toxin [DT]: where the note is “DT every 3 days for 21 days, H-2^b/g7 mixed chimeric NOD mice”, the “insulitis after depletion of donor-type or host-type Treg cells” value was “significant but moderate recurrence of insulitis, without causing hyperglycemia”. Moreover, the “reduction of donor-type Treg” value (DT every 3 days for 21 days, donor cells carrying Foxp3^DTR) is on record as approximately 95%. Also, the “reduction of host-type Treg” value (DT every 3 days for 21 days, host cells carrying Foxp3^DTR) is listed as approximately 90%. The “mice insulitis free in all the evaluated islets” value (donor-type Treg depleted chimeric mice) was found to be 50% and the “mice insulitis free in all the evaluated islets” value (host-type Treg depleted chimeric mice) is 33%.
